PMC10179080, “In Vivo and In Vitro Characterization of Close Analogs of Compound KA-11, a New Antiseizure Drug Candidate” (International Journal of Molecular Sciences, 2023)
Marks after values point to notes of the source that are not given here.

What was measured:
[1] = molecular target: T1, TRPV1 (VR1) (antagonist effect) (Homo sapiens, UniProt Q8NER1); assay: TRPV1 antagonist functional assay (intracellular Ca2+, CHO cells); assay type: cell-based; details: CHO; 100 µM; not published before; read-out: % Inhibition of control specific binding (functional, antagonist effect)
T1 construct: host or cells: CHO cells
Procedure: (§1) Binding studies were carried out commercially in Eurofins Laboratories (Poitiers, France or New Taipei City, Taiwan).

[2] = test system: Glutamate (AMPA, nonselective, antagonist radioligand, [3H] AMPA radioligand); design: method as in PMID 30247871; details: 100 µM; cited from earlier work
[3] = design: method as in PMID 30247871; details: cited from earlier work
[4] = test system: 6-Hz-induced psychomotor seizures in mice; details: i.p., cited from earlier work
[5] = test system: seizure susceptibility in mice; design: method as in PMID 28412310; details: 100 mg/kg; cited from earlier work
hERG potassium channel = molecular target: T2, hERG potassium channel (Homo sapiens, UniProt Q12809); assay: Radioligand binding, potassium channel (hERG); details: human, human recombinant HEK-293 cells expressing hERG, KA-11 value not published before, read-out: % Inhibition of Control Specific Binding
T2 construct: host or cells: HEK-293 cells
Procedure: Dysfunction of both sodium and calcium ion channels is known to be one of the crucial reasons behind the pathogenesis of seizures. Consequently, these ion channels are molecular targets for several clinically important ASDs such as lacosamide, lamotrigine, carbamazepine, oxcarbazepine and compounds currently under preclinical and clinical studies. Thus, for KA-228 and KA-232, we tested herein their binding profile toward the aforementioned ion channels at concentrations of 10 and 100 µM (Table 3). […] Apart from in vitro studies focused on explaining the mechanism of action, KA-232 was additionally tested for its interaction with the potassium channel (hERG) which is recognized as one of the most important ‘off-targets’ responsible for harmful arrhythmogenic activity. Thus, the interaction of potential drug candidates with hERG must be excluded at an early stage of development.
as §1

[6] = molecular target: T3, Calcium Cav2.2 channel (antagonist radioligand) (Rattus norvegicus, UniProt Q02294); design: method as in PMID 26052884; details: 100 µM; cited from earlier work
T3 construct: rat cerebral cortex; tissue Eurofins Laboratories; host or cells: rat cerebral cortex

Na^+ channel (site 2) = test system: Na^+ channel (site 2); design: method as in PMID 26052884; details: 100 µM; cited from earlier work
[7] = test system: neuromuscular strength in mice; design: method as in PMID 34074008; details: single administration 30 mg/kg; cited from earlier work
CYP3A4 = molecular target: T4, CYP3A4 (Homo sapiens, UniProt P08684); design: method as in PMID 26052884; details: 10 µM; cited from earlier work
T4 construct: purchased Promega, Madison, WI, USA

[8] = test system: motor performance in mice; details: i.p.; cited from earlier work
[9] = test system: Calcium Cav1.2 channel (verapamil site, antagonist radioligand); design: method as in PMID 30247871; details: 100 µM; cited from earlier work
[10] = test system: tonic–clonic seizures in mice; details: i.p.; cited from earlier work
CYP2D6 = molecular target: T5, CYP2D6 (Homo sapiens, UniProt P10635); design: method as in PMID 30247871; details: cited from earlier work
T5 construct: purchased Promega, Madison, WI, USA

[11] = molecular target: GABAA (α1,β2,γ2) (agonist radioligand) (Homo sapiens, UniProt P14867+P47870); design: method as in PMID 30247871; details: 100 µM; cited from earlier work
[12] = test system: Glutamate (NMDA, nonselective, antagonist radioligand, [3H] Ifenprodil radioligand); design: method as in PMID 30247871; details: 100 µM; cited from earlier work
[13] = design: method as in PMID 26052884; details: cited from earlier work
[14] = test system: PTZ-induced clonic seizures in mice; details: i.p., cited from earlier work
hepatoma HepG2 = test system: hepatoma HepG2; design: method as in PMID 30247871; details: 10 µM; cited from earlier work
[15] = test system: Calcium Cav1.2 channels (diltiazem site, antagonist radioligand); design: method as in PMID 30247871; details: 100 µM; cited from earlier work
[16] = test system: Calcium Cav1.2 channels (dihydropyridine site, antagonist radioligand); design: method as in PMID 26052884; details: 100 µM; cited from earlier work

T5 sequence (P10635 whole entry): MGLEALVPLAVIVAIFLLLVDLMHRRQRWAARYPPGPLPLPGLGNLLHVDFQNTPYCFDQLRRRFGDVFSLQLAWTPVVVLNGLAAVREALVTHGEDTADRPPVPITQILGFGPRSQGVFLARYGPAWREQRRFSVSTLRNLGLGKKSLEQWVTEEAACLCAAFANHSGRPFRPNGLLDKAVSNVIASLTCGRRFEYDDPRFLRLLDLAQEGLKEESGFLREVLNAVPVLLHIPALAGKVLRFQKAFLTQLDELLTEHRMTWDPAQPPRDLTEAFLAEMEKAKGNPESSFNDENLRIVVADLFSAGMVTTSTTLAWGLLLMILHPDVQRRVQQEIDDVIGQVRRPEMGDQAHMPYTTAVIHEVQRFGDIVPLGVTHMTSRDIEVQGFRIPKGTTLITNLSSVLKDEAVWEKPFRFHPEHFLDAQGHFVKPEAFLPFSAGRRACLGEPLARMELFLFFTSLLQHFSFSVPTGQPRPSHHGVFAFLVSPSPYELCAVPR
T3 sequence (Q02294 whole entry): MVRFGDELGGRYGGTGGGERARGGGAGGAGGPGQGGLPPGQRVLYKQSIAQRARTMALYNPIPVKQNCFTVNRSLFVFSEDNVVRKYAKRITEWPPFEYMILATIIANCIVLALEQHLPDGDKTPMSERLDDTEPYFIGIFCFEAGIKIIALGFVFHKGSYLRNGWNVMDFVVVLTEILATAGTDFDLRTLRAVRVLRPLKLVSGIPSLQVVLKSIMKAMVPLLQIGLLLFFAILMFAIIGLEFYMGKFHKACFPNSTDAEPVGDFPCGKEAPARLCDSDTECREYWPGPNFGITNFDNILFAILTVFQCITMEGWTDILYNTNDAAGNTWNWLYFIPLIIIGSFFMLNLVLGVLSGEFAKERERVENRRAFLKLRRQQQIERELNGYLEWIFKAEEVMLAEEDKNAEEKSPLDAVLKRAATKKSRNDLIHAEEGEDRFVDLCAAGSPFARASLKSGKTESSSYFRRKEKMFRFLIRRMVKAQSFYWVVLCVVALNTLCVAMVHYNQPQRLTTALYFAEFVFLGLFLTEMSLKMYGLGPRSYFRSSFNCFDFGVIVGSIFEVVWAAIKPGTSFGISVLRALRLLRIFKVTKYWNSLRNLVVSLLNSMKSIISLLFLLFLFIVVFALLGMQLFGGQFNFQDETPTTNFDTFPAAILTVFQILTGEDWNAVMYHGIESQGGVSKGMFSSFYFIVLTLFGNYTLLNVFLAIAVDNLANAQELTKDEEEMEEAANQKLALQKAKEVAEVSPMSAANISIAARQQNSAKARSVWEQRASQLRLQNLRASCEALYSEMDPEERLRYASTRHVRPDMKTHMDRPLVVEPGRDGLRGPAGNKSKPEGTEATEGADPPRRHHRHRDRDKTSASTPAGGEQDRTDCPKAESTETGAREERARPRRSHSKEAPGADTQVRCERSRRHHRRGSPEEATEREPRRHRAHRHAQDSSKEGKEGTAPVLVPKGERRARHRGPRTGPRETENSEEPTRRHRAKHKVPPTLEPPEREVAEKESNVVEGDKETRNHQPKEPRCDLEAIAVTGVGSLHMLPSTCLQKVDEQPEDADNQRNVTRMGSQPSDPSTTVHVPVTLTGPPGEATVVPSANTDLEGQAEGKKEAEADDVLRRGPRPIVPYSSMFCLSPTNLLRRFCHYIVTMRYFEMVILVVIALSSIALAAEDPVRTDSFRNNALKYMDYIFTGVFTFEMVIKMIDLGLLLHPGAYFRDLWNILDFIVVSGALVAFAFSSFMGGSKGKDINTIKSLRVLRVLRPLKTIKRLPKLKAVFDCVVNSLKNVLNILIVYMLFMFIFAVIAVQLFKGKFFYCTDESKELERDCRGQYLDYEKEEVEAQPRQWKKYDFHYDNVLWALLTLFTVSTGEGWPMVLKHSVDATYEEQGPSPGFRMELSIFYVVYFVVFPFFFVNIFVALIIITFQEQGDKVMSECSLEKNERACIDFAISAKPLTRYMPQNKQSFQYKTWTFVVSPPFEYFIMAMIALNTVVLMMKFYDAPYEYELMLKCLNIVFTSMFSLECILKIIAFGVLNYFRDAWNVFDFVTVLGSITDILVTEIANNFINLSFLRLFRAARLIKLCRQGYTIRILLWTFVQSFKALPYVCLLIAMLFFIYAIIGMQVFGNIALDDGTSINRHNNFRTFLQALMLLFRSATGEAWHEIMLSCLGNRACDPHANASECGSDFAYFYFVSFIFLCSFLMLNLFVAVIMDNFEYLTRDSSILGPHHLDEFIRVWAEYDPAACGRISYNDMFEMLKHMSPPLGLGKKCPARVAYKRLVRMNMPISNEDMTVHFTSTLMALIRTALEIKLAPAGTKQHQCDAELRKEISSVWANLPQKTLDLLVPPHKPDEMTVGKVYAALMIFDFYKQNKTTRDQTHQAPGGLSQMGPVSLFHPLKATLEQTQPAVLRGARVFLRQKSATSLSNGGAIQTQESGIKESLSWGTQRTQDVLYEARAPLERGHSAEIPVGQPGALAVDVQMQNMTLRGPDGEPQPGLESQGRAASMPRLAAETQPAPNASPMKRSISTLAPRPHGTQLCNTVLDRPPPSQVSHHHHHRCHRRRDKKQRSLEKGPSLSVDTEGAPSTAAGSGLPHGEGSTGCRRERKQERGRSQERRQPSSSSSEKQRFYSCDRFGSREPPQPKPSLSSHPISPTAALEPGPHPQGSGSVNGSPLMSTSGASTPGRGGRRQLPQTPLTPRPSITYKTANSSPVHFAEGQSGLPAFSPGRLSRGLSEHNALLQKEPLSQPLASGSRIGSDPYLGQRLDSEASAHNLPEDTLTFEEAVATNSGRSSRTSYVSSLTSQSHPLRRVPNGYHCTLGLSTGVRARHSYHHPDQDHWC
T1 sequence (Q8NER1 whole entry): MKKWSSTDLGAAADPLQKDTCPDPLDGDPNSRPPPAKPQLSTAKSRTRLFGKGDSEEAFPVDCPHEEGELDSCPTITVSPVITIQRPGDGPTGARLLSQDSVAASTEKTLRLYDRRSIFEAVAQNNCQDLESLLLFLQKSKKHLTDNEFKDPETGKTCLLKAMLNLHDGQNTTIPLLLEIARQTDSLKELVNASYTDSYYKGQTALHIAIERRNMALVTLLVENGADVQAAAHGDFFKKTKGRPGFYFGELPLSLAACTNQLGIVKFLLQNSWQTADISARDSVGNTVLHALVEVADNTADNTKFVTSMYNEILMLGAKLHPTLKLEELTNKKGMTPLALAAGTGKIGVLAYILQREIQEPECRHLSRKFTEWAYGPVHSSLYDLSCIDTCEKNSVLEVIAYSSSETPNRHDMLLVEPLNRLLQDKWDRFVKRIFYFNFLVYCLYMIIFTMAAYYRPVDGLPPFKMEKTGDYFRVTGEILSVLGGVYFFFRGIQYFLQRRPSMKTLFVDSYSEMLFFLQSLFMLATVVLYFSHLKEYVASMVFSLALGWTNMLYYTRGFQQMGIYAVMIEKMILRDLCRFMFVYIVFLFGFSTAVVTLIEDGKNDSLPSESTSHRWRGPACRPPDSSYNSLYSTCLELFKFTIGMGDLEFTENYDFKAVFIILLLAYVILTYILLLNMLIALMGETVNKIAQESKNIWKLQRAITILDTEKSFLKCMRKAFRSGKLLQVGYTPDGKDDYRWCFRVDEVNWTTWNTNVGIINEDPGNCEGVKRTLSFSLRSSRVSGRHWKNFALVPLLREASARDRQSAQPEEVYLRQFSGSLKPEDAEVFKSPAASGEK
T4 sequence (P08684 whole entry): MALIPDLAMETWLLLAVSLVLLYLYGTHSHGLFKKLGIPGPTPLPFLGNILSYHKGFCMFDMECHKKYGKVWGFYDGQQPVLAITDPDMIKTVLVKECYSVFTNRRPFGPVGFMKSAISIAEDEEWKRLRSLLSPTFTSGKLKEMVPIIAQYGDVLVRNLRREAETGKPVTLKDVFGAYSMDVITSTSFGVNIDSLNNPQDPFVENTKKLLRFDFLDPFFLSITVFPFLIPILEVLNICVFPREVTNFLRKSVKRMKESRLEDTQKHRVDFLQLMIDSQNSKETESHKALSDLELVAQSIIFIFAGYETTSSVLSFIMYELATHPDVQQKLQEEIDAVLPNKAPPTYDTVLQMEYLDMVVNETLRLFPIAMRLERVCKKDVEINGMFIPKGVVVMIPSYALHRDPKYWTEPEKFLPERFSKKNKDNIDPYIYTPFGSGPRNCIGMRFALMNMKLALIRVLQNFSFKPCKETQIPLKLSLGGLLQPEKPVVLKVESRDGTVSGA

## CC(C(=O)N1CCN(c2cccc(C(F)(F)F)c2)CC1)N1C(=O)CCC1=O (stereo not shown) [KA-11]
[1]
  inhibition at 100 µM: 33%
[2]
  % Inhibition of Control Specific Binding: −2.9 (100) ^# %
[3]
  PAMPA Pe ± SD: 27.1 ± 3.8 ^b [9] 10^−6 cm/s
[4]; 32 mA
  ED50 6 Hz ± SD: 21.0 ± 32.19 mg/kg
[4]
  TI (TD50/ED50), 6 Hz: > 71.43
[5]
  effect on thresholds for all studied endpoints (myoclonic twitch, generalized clonus, forelimb tonus): significant increase
hERG potassium channel
  inhibition at 60 min, 100 µM: 15%
[6]
  % Inhibition of Control Specific Binding: 13.9 (100) * %
Na^+ channel (site 2)
  % Inhibition of Control Specific Binding: 37.4 (100) * %
[7]
  effect on muscle strength: no statistically significant abnormalities
CYP3A4
  CYP3A4 activity (% of control ± SD): 99.21 ± 4.9 [6] % of control
[8]
  TD50: >1500 mg/kg
[9]
  % Inhibition of Control Specific Binding: 1.5 (100) ^# %
[10]
  ED50 MES ± SD: 88.4 ± 34.16 mg/kg
  TI (TD50/ED50), MES: > 16.97
CYP2D6; 10 µM
  CYP2D6 activity (% of control ± SD): 122.30 ± 2.02 [9] % of control
CYP2D6; at 1 and 10 µM
  effect on CYP2D6 activity: slight induction
[11]
  % Inhibition of Control Specific Binding: −28.1 (100) ^# %
[12]
  % Inhibition of Control Specific Binding: 13.0 (100) ^# %
[13]
  Metabolic stability (% remaining after incubation with HLMs): 73.49 [6] %
[14]; scPTZ
  ED50 PTZ ± SD: 59.9 ± 19.55 mg/kg
[14]
  TI (TD50/ED50), PTZ: > 25.04
Hepatoma HepG2
  HepG2 viability (% of control ± SD): 99.78 ± 2.18 [9] % of control
[15]
  % Inhibition of Control Specific Binding: 44.9 (100) ^# %
[16]
  % Inhibition of Control Specific Binding: 64.2 (100) * %
